Laboratory results taken from PubChem BioAssay (NCI).
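Results reflect a 48-hour exposure of cells in 96-well plates to compound at five concentrations. Definition used: TGI = concentration required for complete inhibition of growth.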

Legend:
Experiment in all cases: NCI tumour cell line growth inhibition, 48 h
SF-539 CNS = system: SF-539 CNS
MALME-3M melanoma = system: MALME-3M melanoma
DMS 114 small cell lung = system: DMS 114 small cell lung
HOP-62 NSCLC = system: HOP-62 NSCLC
LXFL 529 NSCLC = system: LXFL 529 NSCLC
M19-MEL melanoma = system: M19-MEL melanoma
HCT-116 colon = system: HCT-116 colon
UACC-62 melanoma = system: UACC-62 melanoma
KM12 colon = system: KM12 colon
DMS 273 small cell lung = system: DMS 273 small cell lung

Row | Structure (SMILES) | TGI (SF-539 CNS) [µM] | TGI (MALME-3M melanoma) [µM] | TGI (DMS 114 small cell lung) [µM] | TGI (HOP-62 NSCLC) [µM] | TGI (LXFL 529 NSCLC) [µM] | TGI (M19-MEL melanoma) [µM] | TGI (HCT-116 colon) [µM] | TGI (UACC-62 melanoma) [µM] | TGI (KM12 colon) [µM] | TGI (DMS 273 small cell lung) [µM]
1 | CN(CCS(=O)(=O)N1C(=O)C2CCCN2C(=O)[C@@H]1Cc1ccccc1)C(=O)OCc1ccccc1 (stereo partly drawn) | > 100 | > 100 | > 100 | > 100 | > 100 | > 100 | > 100 | 95.7 | > 100 | 
2 | O=C1[C@H]2ON(c3ccccc3)C(c3ccc([N+](=O)[O-])cc3)[C@H]2C(=O)N1c1ccc(Cc2ccc(N3C(=O)[C@@H]4ON(c5ccccc5)C(c5ccc([N+](=O)[O-])cc5)[C@@H]4C3=O)cc2)cc1 (stereo partly drawn) | > 100 | > 100 | > 100 | > 100 | > 100 | > 100 | > 100 | > 100 | > 100 | > 100
3 | CC1=N/C(=C/c2ccc3c(c2)OCO3)C(=O)O1 | > 100 | > 100 | > 100 |  | > 100 | > 100 | > 100 | > 100 | > 100 | > 100
4 | CCC[C@H]1O[C@@H]2CC(=O)O[C@@H]2C2=C1C(=O)C=CC2=O | 33.6 | 32.3 |  | > 95 | 29.6 | 41.7 | 32.1 | 32.3 | 48.3 | 19.5
5 | CC(C)(C)C1=CC(=C(P(=O)(O)O)P(=O)(O)O)C=C(C(C)(C)C)C1=O | > 50 | > 50 | > 50 | > 50 | > 50 | > 50 | > 50 | > 50 | > 50 | > 50
6 | C=C[C@@H](C)[C@]1(C(=O)OC)CCCC12OCCO2 | > 100 | > 100 | > 100 | > 100 | > 100 | > 100 | > 100 | > 100 | > 100 | > 100
7 | COc1ccc(Cc2c3cc(O)c(=O)cc-3ccn2C)cc1 | 70.4 | > 88.1 | 62.4 | 82.4 |  | 75 | > 100 | 61 | > 100 | > 100
8 | C/C(=N\N=C(N)N)C(CN1CCCCC1)C(c1ccccc1)c1c(O)c2ccccc2oc1=O (stereo not drawn) | > 100 | > 100 | > 100 | > 100 | > 100 | > 100 | > 100 | > 100 |  | 
9 | Cc1c(C)c2ccc3oc4ccccc4c3c2oc1=O | > 100 | > 100 | > 100 | > 100 | > 100 | > 100 | > 100 | > 100 | > 100 | 
10 | CCOC(OC(C)=O)[C@@H]1C=C[C@H](C)N(c2ccc([N+](=O)[O-])cc2)O1 (stereo partly drawn) | 8.44 | 20.1 | 16.9 | 31.6 | 10.8 | 5.3 | 2.61 | 7.55 | 7.82 | 13.4
11 | CSc1ccc2c(cc1=O)[C@@H](NC(=O)c1cccc([N+](=O)[O-])c1)CCc1cc(O)c(O)c(O)c1-2 | 62.9 | > 100 | 60 | > 100 | > 100 | 49.4 | 35.9 | 39.2 | > 100 | > 100
